Tests used:
Assay type in all cases: cell-based, mouse
[1] = test system: embryoid bodies from E14Tg2A embryonic stem cells; test: Differentiation of adipocytes from embryoid bodies (oil-red-O staining, morphology); details: ATRA treated vs vehicle treated cultures, same differentiation process
Protocol: (§1) Mouse embryonic stem (ES) cells were used as the source of embryoid bodies (EBs). E14Tg2A cells were trypsinized and made into suspension in Glasgow Minimum essential medium containing 10% fetal bovine serum (growth medium). Cells were counted under a microscope using a haemocytometer, and were diluted to a concentration on 10^5 cells/mi. During cell passages, 1000 U/ml of leukemia inhibitory factor (LIF) was added to prevent differentiation.
To make EBs, cell suspensions after trypsinization were made into hanging droplets (20 μl) onto the cover of a bacteriological petri dish. The bottom of the dish was filled with PBS.
20 μl droplets of cells in suspension were pipetted onto the cover of a 100 mm bacteriological petri dish. […]
Two days afterwards, the droplets containing EBs were collected by adding medium to the cover and equally distributed onto 2 gelatinized (precoated with 0.1% gelatin) 100 mm petri dishes. […] After treating the cells for 8 days, cells were removed from the dish, counted with a hemocytometer and plated onto gelatinized 6-well culture plates at 10^4/cm^2. […]
ATRA treated cultures and vehicle treated control cultures underwent the same differentiation process as described in the Methods. […] The relative mass of specific RNA was calculated by the comparative cycle of threshold detection method according to the manufacturer's instruction. […]

MESC = test: ATRA effects on growth of MESC (Alamar blue cell proliferation); details: ATRA 10^-6 M for three days, vs 0.1% DMSO vehicle, 500 cells/well
Protocol: as §1
FIG. 1. ATRA effects on growth of MESC. Cells were plated at 500/well in a 96-well culture plate. Starting on day 1, they were treated with ATRA (10^−6 M) for three days with replacement of fresh media each day. Control samples were treated with 0.1% DMSO (vehicle). At each indicated day, Alamar blue (10 μl/0.1 ml), an indicator for cell proliferation detection, was added to each well and the fluorescence generated was read after 4 hours.

Differentiated MESC = test: Gene expression profile by Taqman real time PCR in differentiated MESC
Protocol: Two days afterwards, the droplets containing EBs were collected by adding medium to the cover and equally distributed onto 2 gelatinized (precoated with 0.1% gelatin) 100 mm petri dishes. The attached EBs were treated with 10^−6 M ATRA (all-trans retinoic acid) for 3 days to initiate differentiation. Medium was then changed into growth medium with 10^−7 M insulin and 2×10^−9 M of triiodothyronine (T3) (induction medium) to continue adipocyte differentiation. Medium was changed every two days. At day 10, further stimulation of induction was made by the addition of an induction cocktail [0.5 mM isobutylmethylxanthine (IBMX), 0.1 μM dexamethasone (DEX) and 1 μM of insulin]. After treating the cells for 8 days, cells were removed from the dish, counted with a hemocytometer and plated onto gelatinized 6-well culture plates at 10^4/cm^2. Cells with minute lipid droplets (adipocytes) appeared in two days. The number of the adipocytes and the size of droplets increased over time and reached a plateau at day 10.
ATRA treated cultures and vehicle treated control cultures underwent the same differentiation process as described in the Methods. […] Total RNA was extracted, and reverse-transcribed. The relative mass of specific RNA was calculated by the comparative cycle of threshold detection method according to the manufacturer's instruction. Two independent experiments were performed using different RNA preparations from the cultures; each run of PCR was conducted in triplicate. The expression of adipocyte markers was increased while some of the osteoblast markers were decreased.

[2] = test system: embryoid body cultures from E14Tg2A cells; test: Osteoblast differentiation, real time RT-PCR of osteoblast marker mRNA; details: day 31 cultures
Protocol: Two days afterwards, the droplets containing EBs were collected by adding medium to the cover and equally distributed onto 2 gelatinized (precoated with 0.1% gelatin) 100 mm petri dishes. Without treating with ATRA, the attached EBs were incubated in the induction medium containing 10^−7 M insulin and 2×10^−9 M T3 for 5 days.
After that, 0.3 mM of ascorbic acid phosphate (magnesium salt, Waco Chemicals, Dallas, Tex.) and 10 mM of β-glycerophosphate (Sigma-Aldrich Chemicals, St. Louis, Mo.) were added to the induction medium for an additional 9 days. At day 14, cultures were trypsinized to remove the cells and plated on to gelatin-coated 6-well culture plates at a density of 10^4 cells/cm^2. Three days after, at day 17, DEX at 10^−8 M was added to some of the wells to further induce osteoblast differentiation. Medium was replaced every 2 days throughout the culture period.
The cultures were terminated 2 weeks after at day 31 and stained for alkaline phosphatase (ALP) activity using a kit from Sigma following manufacturer's procedure (procedure No. 85). In this procedure, cells containing ALP activity, an osteoblast maker, appear in blue color. […]

[3] = test system: fully differentiated and induced cells (adipocytes from MESC); test: Hormone induced lipolysis (glycerol release into medium); details: 4 hr in glucose-free DMEM; isoproterenol increasing concentrations; dibutyryl-cAMP 10^-3 M; forskolin 4×10^-5 M
Protocol: FIG. 4. Hormone induced lipolysis. Fully differentiated and induced cells were treated with increasing concentrations of isoproterenol in glucose-free DMEM containing 30 mg/ml of fatty acid free albumin and adenosine deaminase (1 U/ml) for 4 hr. The control samples were incubated with 10^−5 M N-(2-phenylisopropyl)-adenosine to replace the endogenous adenosine. The amount of glycerol in the medium was measured using a calorimetric kit. Differentiated and induced cells incubated with isoproterenol in 35 mm wells. B. Differentiated cells with or without induction cultures were incubated with 10^−3 M dibutyryl-cAMP or 4×10^−5 M forskolin in 60 mm diameter culture plates.

SMILES: CC1=C(/C=C/C(C)=C/C=C/C(C)=C/C(=O)O)C(C)(C)CCC1 [ATRA, all-trans retinoic acid]
- formation of adipocytes at end of culture [1]: formed numerous fully differentiated adipocytes
- cell number (Alamar blue fluorescence) (MESC): significant lowering of the cell number was only seen at day 3
- ALBP expression, Fold Change (ATRA/Control) (Differentiated MESC; adipocyte marker): +53.2 ± 0.09 fold
- HSL expression, Fold Change (ATRA/Control) (Differentiated MESC; adipocyte marker): +2.39 ± 0.17 fold
- PPAR-γ expression, Fold Change (ATRA/Control) (Differentiated MESC; adipocyte marker): +1.72 ± 0.42 fold
- ALP expression, Fold Change (ATRA/Control) (Differentiated MESC; osteoblast marker): −2.54 ± 0.03 fold
- Collagen type 1α expression, Fold Change (ATRA/Control) (Differentiated MESC; osteoblast marker): +6.27 ± 0.26 fold
- Osteocalcin expression, Fold Change (ATRA/Control) (Differentiated MESC; osteoblast marker): −5.28 ± 0.05 fold
- Osteonectin expression, Fold Change (ATRA/Control) (Differentiated MESC; osteoblast marker): +2.02 ± 0.25 fold

SMILES: C[C@@H]1C[C@H]2[C@@H]3CCC4=CC(=O)C=C[C@]4(C)[C@@]3(F)[C@@H](O)C[C@]2(C)[C@@]1(O)C(=O)CO [DEX, dexamethasone]
- increase in expression of ALP mRNA [2]: ~2 fold
- increase in expression of osteocalcin mRNA [2]: 8 fold

SMILES: CCCC(=O)Nc1ncnc2c1ncn2[C@@H]1O[C@@H]2COP(=O)(O)O[C@H]2[C@H]1OC(=O)CCC [dibutyryl-cAMP]
- glycerol release (lipolysis) [3]: dose-dependent increase of glycerol release

SMILES: CC(C)NCC(O)c1ccc(O)c(O)c1 (stereo not shown) [isoproterenol]
- glycerol release (lipolysis) [3]: dose-dependent increase of glycerol release

Reference: patent publication US20070128727A1, “Methods for differentiation of embryonic stem cells” (priority 2005, published 2007)
